The values that follow come from PMC3760497 (Nature, 2011).

The target in this test is Get3 (Saccharomyces cerevisiae, UniProt Q12154, D57N). Briefly: mant-ATP chase titration, fluorescence. It is filed as binding. Conditions: 1 uM Get3(D57N), 1 uM mant-ATP; 50 mM HEPES pH 7.5, 100 mM NaCl, 5 mM MgCl2; competitive with mant-ATP.
Chain of Get3 (Q12154 whole entry D57N): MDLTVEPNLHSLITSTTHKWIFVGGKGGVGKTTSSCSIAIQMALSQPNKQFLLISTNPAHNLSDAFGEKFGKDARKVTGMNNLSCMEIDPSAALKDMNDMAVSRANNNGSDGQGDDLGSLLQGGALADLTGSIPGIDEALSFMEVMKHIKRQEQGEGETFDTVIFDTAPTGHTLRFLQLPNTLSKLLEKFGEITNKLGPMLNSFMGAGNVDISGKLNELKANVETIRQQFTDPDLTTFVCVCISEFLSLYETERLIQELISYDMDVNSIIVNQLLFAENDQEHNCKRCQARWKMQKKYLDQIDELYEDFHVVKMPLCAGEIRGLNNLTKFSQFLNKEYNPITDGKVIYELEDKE

Take `Nc1ncnc2c1ncn2[C@@H]1O[C@H](COP(=O)(O)OP(=O)(O)O)[C@@H](O)[C@H]1O` [ADP]: the dissociation constant entry was “ADP (which binds weakly to substrate-free Get3; Sup. Fig. S18)”.
